What all share (format): in vivo, human
One series relates to Lp-PLA2. The series can be described thus: MARINE study, Lp-PLA2. The following applies: MARINE ITT; 2 g/day; week 12. The source says: (§1) Parameters (a)-(y) can be measured in accordance with any clinically acceptable methodology. For example, triglycerides, total cholesterol, HDL-C and fasting blood sugar can be sample from serum and analyzed using standard photometry techniques. VLDL-TG, LDL-C and VLDL-C can be calculated or determined using serum lipoprotein fractionation by preparative ultracentrifugation and subsequent quantitative analysis by refractometry or by analytic ultracentrifugal methodology. Apo A1, Apo B and hsCRP can be determined from serum using standard nephelometry techniques. Lipoprotein (a) can be determined from serum using standard turbidimetric immunoassay techniques. LDL particle number and particle size can be determined using nuclear magnetic resonance (NMR) spectrometry. Remnants lipoproteins and LDL-phospholipase A2 can be determined from EDTA plasma or serum and serum, respectively, using enzymatic immunoseparation techniques. Oxidized LDL, intercellular adhesion molecule-1 and interleukin-2 levels can be determined from serum using standard enzyme immunoassay techniques. These techniques are described in detail in standard textbooks, for example Tietz Fundamentals of Clinical Chemistry, 6th Ed. (Burtis, Ashwood and Borter Eds.), WB Saunders Company. […]

In series [1] the test system is FPG, HbA1c, insulin and HOMA-IR. The series can be described thus: Diabetes parameters (FPG, HbA1c, insulin, HOMA-IR) in patients with diabetes mellitus-2 (Example 2). As to conditions: 4 g/day. The method, then:
(§2) The effect of >96% E-EPA on lipid and inflammatory parameters was evaluated in patients with fasting triglyceride levels ≧150 mg/dl and <499 mg/dl on concomitant statin therapy. Patients with diabetes mellitus-2 were randomized and treated with either 2 g/day >96% E-EPA, 4 g/day >96%, or placebo for twelve weeks. At the end of the treatment period, several diabetes efficacy endpoints were evaluated including, TG, LDL-C, non-HDL-C, VLDL-C, Lp-PLA2, Apo B, TC, HDL-C, VLDL-TG, hs-CRP, oxLDL, and RLP-C.

The subject of a further series is Non-HDL-C. The series can be described thus: Non-HDL-C in patients with diabetes mellitus-2 (Example 2). The following applies: 4 g/day, 12 weeks, on statin. Here is the method: as §2
In the next series the test system is TG. The series can be described thus: TG in patients with diabetes mellitus-2 (Example 2). As to conditions: 4 g/day, 12 weeks, on statin.
From the text: as §1, with “Ed.” for “Ed. (Burtis, Ashwood and Borter Eds.), WB Saunders Company.”
The effect of >96% E-EPA on lipid and inflammatory parameters was evaluated in patients with fasting triglyceride levels ≧150 mg/dl and <499 mg/dl on concomitant statin therapy. […]

A further series concerns ICAM-1. The series can be described thus: ANCHOR study (fasting TG ≧200 and <500 mg/dl despite statin), ICAM-1. As to conditions: ANCHOR ITT, week 12. An excerpt: Parameters (a)-(y) can be measured in accordance with any clinically acceptable methodology. For example, triglycerides, total cholesterol, HDL-C and fasting blood sugar can be sample from serum and analyzed using standard photometry techniques. VLDL-TG, LDL-C and VLDL-C can be calculated or determined using serum lipoprotein fractionation by preparative ultracentrifugation and subsequent quantitative analysis by refractometry or by analytic ultracentrifugal methodology. Apo A1, Apo B and hsCRP can be determined from serum using standard nephelometry techniques. Lipoprotein (a) can be determined from serum using standard turbidimetric immunoassay techniques. LDL particle number and particle size can be determined using nuclear magnetic resonance (NMR) spectrometry. Remnants lipoproteins and LDL-phospholipase A2 can be determined from EDTA plasma or serum and serum, respectively, using enzymatic immunoseparation techniques. Oxidized LDL, intercellular adhesion molecule-1 and interleukin-2 levels can be determined from serum using standard enzyme immunoassay techniques. These techniques are described in detail in standard textbooks, for example Tietz Fundamentals of Clinical Chemistry, 6th Ed. (Burtis, Ashwood and Borter Eds.), WB Saunders Company.
A multi-center, placebo-controlled, randomized, double-blind, 12-week study was performed to evaluate the efficacy and safety of >96% E-EPA in patients with fasting triglyceride levels ≧200 mg/dl and <500 mg/dl despite statin therapy (the mean of two qualifying entry values needed to be ≧185 mg/dl and at least one of the values needs to be ≧200 mg/dl). The primary objective of the study was to determine the efficacy of >96% E-EPA 2 g daily and 4 g daily, compared to placebo, in lowering fasting TG levels in patients with high risk for cardiovascular disease and with fasting TG levels ≧200 mg/dL and <500 mg/dL, despite treatment to LDL-C goal on statin therapy. […]

Where [2] appears, read: well-controlled diabetes (HbA1c < median of 6.8%).

Structures are written as SMILES.

With `CC/C=C\C/C=C\C/C=C\C/C=C\C/C=C\CCCC(=O)OCC` [AMR101, all-cis eicosa-5,8,11,14,17-pentaenoic acid ethyl ester], the “Lp-PLA2 change from baseline (median)” value with Lp-PLA2 is listed as −5.1%. The Glycemic control result in series [1] (twelve weeks) is “did not worsen glycemic control”. Besides, in series [1] (well-controlled, less-controlled and all diabetic subjects, FIG. 4), the “Changes in diabetes parameters including FPG, HbA1c, insulin and HOMA-IR” value was “no statistically significant changes”. For the same compound, the entries for the “Median placebo-adjusted percent change in Non-HDL-C from baseline to study end” value in the series on Non-HDL-C (less-controlled diabetes (HbA1c ≧ median of 6.8%)), in the series with Non-HDL-C (total diabetes) and in the series on Non-HDL-C (setting [2]) were −18.0%, −14.4% and −11.3%, respectively. The entries for the “Median placebo-adjusted percent change in TG from baseline to study end” value with TG (total diabetes) and in the series with TG (setting [2]) were −23.2% and −21.0%, respectively. The results for the “ICAM-1 change from baseline (median)” value in the series with ICAM-1 (2 g/day) and with ICAM-1 (4 g/day) were 0.5% and 0.8%, respectively. Besides, the “ICAM-1 end-of-treatment value (median)” value with ICAM-1 (4 g/day) turned out to be 270.0 ng/mL.

These data come from US9827219B2, “Compositions and methods for lowering levels of high-sensitivity C-reactive protein (HS-CRP) in a subject” (priority 2012, dated 2017).
